Patent US20230399319A1, “Acylsulfamide Compound and Pharmaceutical Use Therefor” (Japan Tobacco Inc., priority 2019, published 2023)
pIC50: −log10 of the molar value.

Legend:
[1] = test system: Mice expressing CAPS-related NLRP3 mutations; settings: strain expressing CAPS-related NLRP3 mutations; cited from earlier work
[2] = target: NLRP3 inflammasome (Homo sapiens (Human), UniProt Q96P20); assay: Evaluation of NLRP3 inflammasome inhibitory activity (inhibition of IL-1β production in THP1-Null cells, LPS/Nigericin); settings: for pIC50: IL-1β production in THP1-Null cells, PMA/LPS primed, Nigericin 7.5 μmol/L
Procedure: The NLRP3 inflammasome inhibitory activity of test compounds were evaluated CM the basis of the inhibitory activity of the IL-1β, production in THP1-Null cells (Product Number: thp-null, InvivoGen).
A solution containing a test compound (20 μL/well) was added to test compound-setting wells. […] The supernatant of the culture was cryonically stored (set at −20° C.) until measurement of IL-1β.
The amount of IL-1β in the culture supernatant was quantitated with AlphaLISA IL1 beta kit (Product Number: AL220C, Perkin Elmer). […] Inhibition rates of the test compound-setting wells were calculated on the basis of 100% for the blank-setting wells and 0% for the control-setting wells.

[3] = test system: MOG35-55EAE model mice; settings: administration after the onset; cited from earlier work
[4] = test system: intra-articular urate-injected arthritis model; settings: cited from earlier work

NLRP3 inflammasome, sequence (Q96P20 whole entry): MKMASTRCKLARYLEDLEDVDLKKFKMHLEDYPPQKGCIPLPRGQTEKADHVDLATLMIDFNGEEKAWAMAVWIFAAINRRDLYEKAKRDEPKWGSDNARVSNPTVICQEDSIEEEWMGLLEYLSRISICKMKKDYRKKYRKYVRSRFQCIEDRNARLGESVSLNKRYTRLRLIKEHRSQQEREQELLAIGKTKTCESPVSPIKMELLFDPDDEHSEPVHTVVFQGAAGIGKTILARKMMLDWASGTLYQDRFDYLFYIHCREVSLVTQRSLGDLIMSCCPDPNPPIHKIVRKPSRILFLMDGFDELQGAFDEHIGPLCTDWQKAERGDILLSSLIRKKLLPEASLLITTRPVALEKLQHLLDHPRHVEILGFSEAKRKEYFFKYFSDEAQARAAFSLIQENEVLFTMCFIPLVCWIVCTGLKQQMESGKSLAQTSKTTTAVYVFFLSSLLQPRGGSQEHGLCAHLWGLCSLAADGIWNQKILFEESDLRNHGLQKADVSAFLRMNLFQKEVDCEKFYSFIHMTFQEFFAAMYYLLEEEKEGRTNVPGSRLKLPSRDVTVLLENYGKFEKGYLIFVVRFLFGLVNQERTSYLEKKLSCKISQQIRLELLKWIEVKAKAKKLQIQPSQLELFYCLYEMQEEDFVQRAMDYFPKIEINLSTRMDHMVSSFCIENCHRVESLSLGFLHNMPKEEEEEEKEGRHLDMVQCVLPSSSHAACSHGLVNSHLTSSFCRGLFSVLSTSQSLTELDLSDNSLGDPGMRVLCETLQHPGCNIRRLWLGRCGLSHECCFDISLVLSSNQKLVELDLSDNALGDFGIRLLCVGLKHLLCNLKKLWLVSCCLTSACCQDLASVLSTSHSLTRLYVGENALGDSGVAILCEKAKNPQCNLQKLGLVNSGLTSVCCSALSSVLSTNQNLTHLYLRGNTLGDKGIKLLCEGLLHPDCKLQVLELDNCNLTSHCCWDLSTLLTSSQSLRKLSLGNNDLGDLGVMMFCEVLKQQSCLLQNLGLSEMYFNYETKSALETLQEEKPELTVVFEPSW

SMILES	pIC50 [2]	further results
O=C(O)c1ccc(/C=C2/SC(=S)N(Cc3cccc(C(F)(F)F)c3)C2=O)cc1 [CY-09]	–	survival [1]: improved the survival; systemic lethal inflammation [1]: suppressed systemic lethal inflammation
O=C(NS(=O)(=O)N1CCC2(COC2)C1)c1coc(Nc2c3c(c(Cl)c4c2CCC4)CCC3)n1 [Example 48]	–	inhibition at 30 µM ([2]; read-out: Inhibition at 30 μM): 23%
O=C(NS(=O)(=O)N1CCC(F)(F)C1)c1coc(Nc2c3c(c(Cl)c4c2CCC4)CCC3)n1 [Example 49]	6.57	–
O=C(NS(=O)(=O)N1C2CCC1CC2)c1coc(Nc2c3c(c(Cl)c4c2CCC4)CCC3)n1 [Example 50]	6.14	–
O=C(NS(=O)(=O)N1CC2CCC(C1)O2)c1coc(Nc2c3c(c(Cl)c4c2CCC4)CCC3)n1 [Example 51]	> 7.52	–
O=C(NS(=O)(=O)N1CCOCC1)c1coc(Nc2c3c(c(F)c4c2CCC4)CCC3)n1 [Example 53]	> 7.52	–
CC(=O)N1CCN(S(=O)(=O)NC(=O)c2coc(Nc3c4c(c(Cl)c5c3CCC5)CCC4)n2)CC1 [Example 54]	6.77	–
CS(=O)(=O)N1CCN(S(=O)(=O)NC(=O)c2coc(Nc3c4c(c(Cl)c5c3CCC5)CCC4)n2)CC1 [Example 55]	6.80	–
O=C(NS(=O)(=O)N1CCOC2(COC2)C1)c1coc(Nc2c3c(c(Cl)c4c2CCC4)CCC3)n1 [Example 57]	7.13	–
CS(=O)(=O)C1CCN(S(=O)(=O)NC(=O)c2coc(Nc3c4c(c(F)c5c3CCC5)CCC4)n2)CC1 [Example 58]	7.41	–
O=C(NS(=O)(=O)N1CC2CCC(C1)O2)c1coc(Nc2c3c(c(F)c4c2CCC4)CCC3)n1 [Example 59]	7.36	–
O=C(NS(=O)(=O)N1C[C@H]2COC[C@H]2C1)c1coc(Nc2c3c(c(F)c4c2CCC4)CCC3)n1 [Example 60]	6.89	–
O=C(NS(=O)(=O)N1C[C@H]2COC[C@H]2C1)c1coc(Nc2c3c(c(Cl)c4c2CCC4)CCC3)n1 [Example 61]	6.77	–
CC(=O)NC1CCN(S(=O)(=O)NC(=O)c2coc(Nc3c4c(c(F)c5c3CCC5)CCC4)n2)CC1 [Example 62]	6.57	–
CN(C)C(=O)C1CCN(S(=O)(=O)NC(=O)c2coc(Nc3c4c(c(F)c5c3CCC5)CCC4)n2)CC1 [Example 63]	6.05	–
CN1CCN(S(=O)(=O)NC(=O)c2coc(Nc3c4c(c(F)c5c3CCC5)CCC4)n2)CC1=O [Example 64]	5.24	–
O=C1CCN(S(=O)(=O)NC(=O)c2coc(Nc3c4c(c(Cl)c5c3CCC5)CCC4)n2)C1 [Example 65]	7.20	–
CN(C)S(=O)(=O)C1CCN(S(=O)(=O)NC(=O)c2coc(Nc3c4c(c(F)c5c3CCC5)CCC4)n2)CC1 [Example 66]	> 7.52	–
CCOC(=O)c1c2c(nn1C)CN(S(=O)(=O)NC(=O)c1coc(Nc3c4c(c(F)c5c3CCC5)CCC4)n1)C2 [Example 67]	6.08	–
Cc1ccc2c(c1Nc1nc(C(=O)NS(=O)(=O)N(C)C)co1)CCC2 [Example 69]	6.82	–
Cc1ccc(C(F)(F)F)cc1Nc1nc(C(=O)NS(=O)(=O)N2CCOCC2)co1 [Example 70]	> 7.52	–
Cc1ccc(C(F)(F)F)cc1Nc1nc(C(=O)NS(=O)(=O)N2CCC(S(=O)(=O)N(C)C)CC2)co1 [Example 75]	7.49	–
Cc1ccc(C(F)(F)F)cc1Nc1nc(C(=O)NS(=O)(=O)N2CCCC2)co1 [Example 76]	7.04	–
Cc1ccc(C(F)(F)F)cc1Nc1nc(C(=O)NS(=O)(=O)N2CC3CCC(C2)O3)co1 [Example 77]	7.25	–
COc1ccc(Cl)cc1C(=O)NCCc1ccc(S(=O)(=O)NO)cc1 [JC-171, 5-Chloro-N-[2-(4-hydroxysulfamoyl-phenyl)-ethyl]-2-methoxy-benzamide]	–	impairment of motor function [3]: inhibited the impairment of motor function
CS(=O)(=O)CCC#N [OLT1177]	–	arthritis [4]: suppressed arthritis
